Laboratory results taken from patent US9212151B2, “Heterocyclic compounds useful for kinase inhibition” (Amitech Therapeutic Solutions, Inc., priority 2010, dated 2015).

Assay: MTT cell viability assay, compounds at 5, 1 and 0.2 μM, 48 hours
Type: cell-based
Conditions: human, A549 tumor cells
Experimental: MTT assay is used to determine cell proliferation, percent of viable cells, and cytotoxicity. MTT (3-[4,5-dimethylthiazol-2-yl]2,5-diphenyltetrazolium bromide) is a yellow dye, which can be absorbed by the living cells and be reduced to purplish blue formazan crystals by succinate tetrazolium reductase in mitochondria. Formazan formation can therefore be used to assess and determine the survival rate of cells.
Tumor cells (A549) were plated at 2500 cells/well of a 96-well plate in complete growth medium (DMEM+10% FBS, antibiotic/antimycotic, fungizone, L-glutamine, sodium pyruvate, and non-essential amino acids). The cells were allowed to grow overnight. After cell proliferation, the cells were washed and re-suspended in fresh culture medium and placed in 96 well plates.
To each of the 96 well plates containing A549 and a control, 5, 1, and 0.2 μM of the exemplary compounds 1-200 were add. The 96 well plates were incubated for 48 hours. Cell viability was measured by adding MTT (Sigma) at 5 mg/ml for 4 h to the cells and then removing the medium and resuspending each well in 50 μl DMSO to solubilize the crystals. The 96-well plates were read on a plate-scanning spectrophotometer (BioTek) at an absorbance of […]. The survival rate of cells was calculated based on the measurement of absorption at the 570 nm wavelength by enzyme immunoassay analyzer.

Structure (SMILES) | viability at 48 h, 0.2 µM (0.2 μM) [%] | viability at 48 h, 1 µM (1 μM) [%] | viability at 48 h, 5 µM (5 μM) [%] | viability at 48 h, 0.2 µM (0.2 μM compound) [%] | viability at 48 h, 1 µM (1 μM compound) [%] | viability at 48 h, 5 µM (5 μM compound) [%]
Nc1cc(Oc2cccc(-c3nnc(Nc4cccc(C(F)(F)F)c4)[nH]3)c2)ccn1 [Compound 18] | 50 to 70 | < 50 | < 50 |  |  | 
[2H]C([2H])([2H])Oc1cc(Oc2ccc(-c3nnc(Nc4cccc(C(F)(F)F)c4)[nH]3)cc2)nc(N)n1 [Compound 142] | > 70 | > 70 | > 70 |  |  | 
Nc1cc(Oc2ccc(-c3nnc(Nc4cccc(C(F)(F)F)c4)[nH]3)cc2)nc(SCCO)n1 [Compound 115] | > 70 | > 70 | > 70 |  |  | 
Cc1cc(Oc2cccc(-c3nnc(Nc4cccc(C(F)(F)F)c4)[nH]3)c2)c2ccccc2n1 [Compound 168] | > 70 | > 70 | 50 to 70 |  |  | 
CSc1nc(N)cc(Oc2ccc(-c3nnc(Nc4cccc(C(F)(F)F)c4)[nH]3)cc2Cl)n1 [Compound 104] | > 70 | > 70 | < 50 |  |  | 
CSc1nc(N)cc(Oc2ccc(Nc3nnc(-c4cccc(C(F)(F)F)c4)[nH]3)cc2)n1 [Compound 176] | > 70 | > 70 | > 70 |  |  | 
COCCOc1cc(Oc2cccc(-c3nnc(Nc4cccc(C(F)(F)F)c4)[nH]3)c2)nc(N)n1 [Compound 58] | > 70 | > 70 | > 70 |  |  | 
CCOc1nc(N)cc(Oc2cccc(-c3nnc(Nc4cccc(C(F)(F)F)c4)[nH]3)c2)n1 [Compound 97] | > 70 | > 70 | > 70 |  |  | 
CNc1cc(Oc2ccc(-c3nnc(Nc4cccc(C(F)(F)F)c4)[nH]3)cc2)nc(SC)n1 [Compound 118] | > 70 | > 70 | > 70 |  |  | 
CSc1nc(N)cc(Oc2c(C)cc(-c3nnc(Nc4cccc(C(F)(F)F)c4)[nH]3)cc2C)n1 [Compound 110] | > 70 | > 70 | > 70 |  |  | 
COc1cc(-c2nnc(Nc3cccc(C(F)(F)F)c3)[nH]2)ccc1Oc1cc(N)nc(SC)n1 [Compound 109] | > 70 | > 70 | < 50 |  |  | 
CSc1nc(N)cc(Oc2ccc(-c3nnc(Nc4cccc5c4CCCC5)[nH]3)cc2)n1 [Compound 135] | < 50 | < 50 | < 50 |  |  | 
Fc1ccc2c(Oc3cccc(-c4nnc(Nc5cccc(C(F)(F)F)c5)[nH]4)c3)ccnc2c1 [Compound 192] | > 70 | > 70 | > 70 |  |  | 
FC(F)(F)c1cccc(Nc2nnc(-c3ccc(Oc4ccnc(Cl)c4)cc3)o2)c1 [Compound 30] | > 70 | > 70 | 50 to 70 |  |  | 
CC(C)(C)Sc1cc(Oc2ccc(-c3nnc(Nc4cccc(C(F)(F)F)c4)[nH]3)cc2)nc(N)n1 [Compound 141] | > 70 | > 70 | < 50 |  |  | 
Nc1cc(Oc2ccc(-c3nnc(Nc4cccc(C(F)(F)F)c4)[nH]3)cc2)nc(SCC(=O)O)n1 [Compound 116] | > 70 | > 70 | > 70 |  |  | 
FC(F)(F)c1cccc(Nc2nnc(-c3cccc(Oc4ccnc5cc(OCc6ccccc6)ccc45)c3)[nH]2)c1 [Compound 193] | > 70 | > 70 | > 70 |  |  | 
COc1ccc2c(Oc3ccc(Nc4nnc(-c5cccc(Cl)c5)[nH]4)cc3)ccnc2c1 [Compound 198] |  |  |  | > 70 | > 70 | > 70
Cc1nc(C(F)(F)F)nc(Oc2ccc(-c3nnc(Nc4cccc(C(F)(F)F)c4)[nH]3)cc2)c1C [Compound 157] | > 70 | > 70 | > 70 |  |  | 
NS(=O)(=O)c1cnccc1Oc1ccc(-c2nnc(Nc3cccc(C(F)(F)F)c3)[nH]2)cc1 [Compound 7] | > 70 | > 70 | > 70 |  |  | 
CSc1nc(N)cc(Oc2ccc(-c3nnc(Nc4cc(C)ccc4F)[nH]3)cc2)n1 [Compound 121] | > 70 | 50 to 70 | < 50 |  |  | 
CSc1nc(N)cc(Oc2ccc(-c3nnc(Nc4cccc(C(C)(C)C#N)c4)[nH]3)cc2)n1 [Compound 131] | > 70 | > 70 | < 50 |  |  | 

Structure (SMILES) | viability at 48 h, 0.2 µM (0.2 μM) [%] | viability at 48 h, 1 µM (1 μM) [%] | viability at 48 h, 5 µM (5 μM) [%] | viability at 48 h, 0.2 µM (0.2 μM compound) [%] | viability at 48 h, 1 µM (1 μM compound) [%] | viability at 48 h, 5 µM (5 μM compound) [%]
Cc1cc(Oc2cccc(-c3nnc(Nc4cccc(C(F)(F)F)c4)[nH]3)c2)nc(N)n1 [Compound 54] | > 70 | < 50 | < 50 |  |  | 
COc1ccc2c(Oc3cccc(-c4nnc(Nc5cccc(C(F)(F)F)c5)s4)c3)ccnc2c1 [Compound 49] | > 70 | > 70 | 50 to 70 |  |  | 
CCOc1cc(Oc2ccc(-c3nnc(Nc4cccc(C(F)(F)F)c4)[nH]3)cc2)nc(N)n1 [Compound 52] | > 70 | > 70 | > 70 |  |  | 
Nc1cc(Oc2ccc(-c3nnc(Nc4cccc(C(F)(F)F)c4)[nH]3)cc2)nc(Sc2ccccn2)n1 [Compound 152] | > 70 | > 70 | > 70 |  |  | 
FC(F)(F)c1cccc(Nc2nnc(-c3ccc(Oc4cncc5ccccc45)cc3)[nH]2)c1 [Compound 146] | > 70 | > 70 | < 50 |  |  | 
FC(F)(F)c1cccc(Nc2nnc(-c3ccc(Oc4cncnc4)cc3)[nH]2)c1 [Compound 83] | > 70 | > 70 | > 70 |  |  | 
CSc1nc(N)cc(Oc2cccc(-c3nnc(Nc4ccc(F)c(C(F)(F)F)c4)[nH]3)c2)n1 [Compound 106] | > 70 | > 70 | > 70 |  |  | 
CSc1nc(N)cc(Oc2ccc(-c3nnc(Nc4cccc(C(F)(F)F)c4F)[nH]3)cc2)n1 [Compound 137] | > 70 | < 50 | < 50 |  |  | 
CSc1nc(N)cc(Oc2cccc(-c3nnc(Nc4cccc(C(F)(F)F)c4)o3)c2)n1 [Compound 36] | > 70 | > 70 | > 70 |  |  | 
CCc1cc(Oc2cccc(-c3nnc(Nc4cccc(C(F)(F)F)c4)[nH]3)c2)nc(N)n1 [Compound 94] | > 70 | > 70 | 50 to 70 |  |  | 
Nc1cc(F)cc(Oc2ccc(-c3nnc(Nc4cccc(C(F)(F)F)c4)[nH]3)cc2)c1 [Compound 156] | > 70 | > 70 | 50 to 70 |  |  | 
COCCOc1nc(N)cc(Oc2ccc(-c3nnc(Nc4cccc(C(F)(F)F)c4)[nH]3)cc2)n1 [Compound 78] | > 70 | > 70 | < 50 |  |  | 
Cc1nc(N)cc(Oc2ccc(-c3nnc(Nc4cccc(C(F)(F)F)c4)[nH]3)cc2)n1 [Compound 82] | > 70 | > 70 | 50 to 70 |  |  | 
FC(F)(F)c1cccc(Nc2nnc(-c3ccc(Oc4ccnc5cc(OCc6ccccc6)ccc45)cc3)[nH]2)c1 [Compound 187] | > 70 | > 70 | > 70 |  |  | 
COc1ccc2c(Oc3cccc(-c4nnc(Nc5cccc(C(F)(F)F)c5)[nH]4)c3)ncnc2c1 [Compound 87] | > 70 | > 70 | > 70 |  |  | 
CSc1nc(N)cc(Oc2ccc(-c3nnc(Nc4cccc(C(F)(F)F)c4)o3)cc2)n1 [Compound 25] | < 50 | < 50 | < 50 |  |  | 
FC(F)(F)c1cccc(Nc2nnc(-c3ccc(Oc4ccncc4)cc3)o2)c1 [Compound 29] | > 70 | > 70 | 50 to 70 |  |  | 
Nc1cc(Oc2ccc(-c3nnc(Nc4cccc(C(F)(F)F)c4)o3)cc2)ncn1 [Compound 28] | > 70 | > 70 | > 70 |  |  | 
FC(F)(F)c1cccc(Nc2nnc(-c3cccc(Oc4ccncc4)c3)o2)c1 [Compound 37] | > 70 | > 70 | > 70 |  |  | 
CSc1nc(N)cc(Oc2cccc(-c3nnc(Nc4cccc(C(F)(F)F)c4)[nH]3)c2)n1 [Compound 14] | 50 to 70 | 50 to 70 | 50 to 70 |  |  | 
COc1ccc2c(Oc3cccc(-c4nnc(Nc5cccc(C(F)(F)F)c5)[nH]4)c3)cc(C)nc2c1 [Compound 194] | > 70 | > 70 | > 70 |  |  | 
CSc1nc(N)cc(Oc2ccc(-c3nnc(Nc4ccccc4Cl)[nH]3)cc2)n1 [Compound 140] | > 70 | > 70 | 50 to 70 |  |  | 
